Experimental data: patent US20240246944A1, “AMINO HETEROARYL COMPOUNDS AND COMPOSITIONS” (Anrui Biomedical Technology (Guangzhou) Co., Ltd., priority 2021, published 2024)
Like-named read-outs stand apart in the source and are kept apart here.

Key:
[1] = tested on: IL-23 reporter (JAK2/Tyk2); test: IL-23 induced STAT3 QUANTI-Blue reporter assay in HEK-Blue IL-23 cells; assay type: cell-based
Method: Biological Example 2. IL-23 Induced STAT3 QUANTI-Blue in HEK-Blue™ IL-23 Cells
HEK-Blue™ IL-23 cells were prepared at 2×10^5 cells/ml for adding 5000 cell/well and incubate plates containing compounds+cells for 1 hour at 37° C. Prepare IL-23 (treatment at final conc. 0.1 ng/mL) during incubation and add 2 ul per well of prepared cytokine in media to appropriate wells. The plate was incubated for overnight at 37° C. The next day, QUANTI-Blue solution was prepared. 18 ul of QUANTI-Blue solution per well was added into a new 384-well clear flat bottom plate, followed by addition of 2 ul of induced and treated HEK-Blue cell supernatant from overnight plate. The plate was incubated at 37° C. for 2 hours and SEAP levels determined.

[2] = target: N-terminal His-tagged TYK2 pseudokinase domain (Homo sapiens (Human), UniProt P29597); test: TYK2 JH2 domain SPA binding assay; settings: displacement of H3 probe
Sequence of N-terminal His-tagged TYK2 pseudokinase domain (P29597 589-875): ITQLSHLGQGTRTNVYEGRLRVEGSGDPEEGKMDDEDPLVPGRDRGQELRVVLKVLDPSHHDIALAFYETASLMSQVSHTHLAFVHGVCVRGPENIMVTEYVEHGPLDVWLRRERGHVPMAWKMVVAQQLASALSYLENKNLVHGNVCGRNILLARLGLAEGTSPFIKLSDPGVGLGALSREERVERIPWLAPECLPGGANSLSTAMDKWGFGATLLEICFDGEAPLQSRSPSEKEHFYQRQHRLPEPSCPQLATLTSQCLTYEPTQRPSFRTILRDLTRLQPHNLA
Method: TYK2 JH2 Domain Binding Assay
After incubating at room temperature for 30 min, the inhibition was calculated by the displacement of [3H] 3 binding as determined by scintillation counting.

Jak1 JH2 = Jak1 JH2 (Homo sapiens (Human), UniProt P23458); test: Jak1 JH2 HTRF binding; settings: biochemical assay
Sequence of Jak1 JH2 (P23458 583-855): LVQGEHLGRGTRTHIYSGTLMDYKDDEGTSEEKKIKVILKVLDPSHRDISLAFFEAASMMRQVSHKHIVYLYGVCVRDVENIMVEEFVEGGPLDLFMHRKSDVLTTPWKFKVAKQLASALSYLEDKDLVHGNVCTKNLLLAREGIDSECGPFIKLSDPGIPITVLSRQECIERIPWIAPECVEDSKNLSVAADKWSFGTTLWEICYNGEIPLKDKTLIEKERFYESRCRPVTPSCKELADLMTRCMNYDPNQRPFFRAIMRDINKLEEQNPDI

[3] = tested on: IFNα/β reporter (JAK1/Tyk2); test: IFN-alpha/beta reporter assay in HEK-Blue IFN-a/b cells; assay type: cell-based; settings: cellular assay
Method: (§1) IFN-alpha/beta reporter assay. Seed HEK-Blue™ IFN-a/b cells (1-3×10^4 cells/well/[…]) to 96 cell plate with DMEM (10% HFBS+1% PS) and incubate overnight at 5% CO2&37° C. Diluent compounds in DMSO. Three times dilution and 10 doses. Add compounds to cell plate and incubate 1 h at 5% CO2&37° C. Add IFN-alpha/beta (5 U/ml) to cell plate and incubate overnight at 5% CO2&37° C. Prepare QUANTI-Blue Solution: add 100 μl of QB reagent and 100 μl of QB buffer to 9800 μl sterile water. Use cell supernatant and QUANTI-Blue solution in proportion of 1 to 10, incubate 2 h at 37° C. Read OD630.

IL-2 reporter (JAK1/3) = test: IL-2 reporter assay in HEK-Blue IL-2 cells; assay type: cell-based
Method: as §1, with “IL-2” for “IFN-alpha/beta”, “IL-2 Cells” for “IFN-a/b cells”, “IL-2 (1 ng/mL)” for “IFN-alpha/beta (5 U/ml)”

IFNγ reporter (JAK1/2) = test: IFN-γ reporter assay in HEK-Dual IFN-γ cells; assay type: cell-based
Method: as §1, with “IFN-γ” for “IFN-alpha/beta”, “HEK-Dual™ IFN-γ Cells” for “HEK-Blue™ IFN-a/b cells”, “IFN-γ (0.1 ng/mL)” for “IFN-alpha/beta (5 U/ml)”

[4] = tested on: IL-12/IL-18 induced IFN-gamma production; test: In vivo inhibition of IL-12/IL-18 induced IFN-gamma; settings: mice, oral; for inhibition of IFNγ production (reduction compared to vehicle treated group): 10 mpk
Method: Biological Example 5. In Vivo Inhibition of IL-12/IL-18 Induced IFN-Gamma
Selected exemplified compounds of the present disclosure (compound Examples 4 and 5) and BMS986165 were dosed orally to female C57BL/6J mice (Charles River). One hour later, 0.05 μg of recombinant rat IL-12 was administered IV. Another hour later following IL-12 administration, 1 μg of recombinant rat IL-18 was administered IV. Three hours later, blood was collected and serum were obtained by centrifugation for analysis of IFNγ by ELISA.

IL-23-induced psoriasis = test: In vivo mouse psoriasis model induced by human IL-23; settings: mice, 7.5, 15 and 30 mg/kg BID oral gavage
Method: Biological Example 6. In Vivo Mouse Psoriasis Model Selected exemplified compounds of the present disclosure were also tested in a mouse psoriasis model induced by human IL-23. Psoriasis was induced in 6-8-week-old C57BL/6J female mice (Charles River) by intradermal injection of recombinant human IL-23 into the left ear. IL-23 injections were administered every other day from day 1 through day 9 of the study. Selected compounds at 7.5, 15, and 30 mg/kg, with 15 mg/kg BMS986165 as positive control were dosed BID by oral gavage, with the first dose given the evening before first IL-23 injection. Ear thickness was measured every other day, prior to the ear injection.

Dog PK = assay type: in vivo, Beagle dogs; settings: for AUC(0-t) / Cmax: beagle, plasma
Method: Biological Example 7. Dog PK
Selected exemplified compounds of the present disclosure were also tested in dog for pharmacokinetic studies. The Beagle dogs were fasted overnight with free access to drinking water prior to treatment. All the dosing solutions were freshly prepared prior to dose administration. In intravenous administration animal group were given a single dose of compound at 1 mg·kg-1. Blood for plasma samples were collected at pre-dose, 5, 15, 30 min, 1, 2, 4, 8, 12 and 24 h through vein into tubes anticoagulated with EDTA-K2. In intragastric administration animal group were given a single dose of compound at 5 mg·kg-1. Blood for plasma samples (˜0.5 mL) were collected at pre-dose, 15, 30 min, 1, 2, 4, 8, 12 and 24 h post-dose through vein into tubes anticoagulated with EDTA-K2. Blood samples were inverted several times and were held on wet ice pending centrifugation. The samples were centrifuged (within 20 minutes of collection) in a centrifuge set at 4° C. for 10 minutes at 1500-1600 g to obtain plasma. Plasma samples were transferred and frozen immediately after separation and stored in a freezer set at below −70° C. prior to analysis.

Mouse PK = assay type: in vivo
[5] = HEK-Blue IL-23 cells, Table 2, read-out: IL23 reporter assay_IC50
[6] = HEK-Blue IL-23, HEK-Blue IL-23 cells, Table 2, read-out: IL23 reporter assay_IC50
[7] = HEK-Blue IL-23, cellular assay, Table 3 and text, read-out: IL-23 reporter assay (JAK2/Tyk2) IC50
[8] = cellular assay, Table 3 and text, read-out: IL-23 reporter assay (JAK2/Tyk2) IC50
[9] = HEK-Blue, cellular assay, read-out: IL-2 reporter assay (JAK1/3) IC50
[10] = HEK-Blue, read-out: IC50 in IL-2 reporter assay (JAK1/3)
[11] = cellular assay, read-out: IFNγ reporter assay (JAK1/2) IC50
[12] = intravenous, 1 mg/kg single dose, read-out: AUC0-t (IV)
[13] = po, intragastric, 5 mg/kg single dose
[14] = po, intragastric, 5 mg/kg single dose, read-out: AUC0-t (PO)

## [2H]C([2H])([2H])NC(=O)c1cnc(NC(=O)C2CC2)cc1Nc1cccc(C2=NC3(CC3)C(=O)N2)c1OC [Example 11]
[1]; [5]
  IC50: 111 nM

## [2H]C([2H])([2H])NC(=O)c1nnc(NC(=O)C2CC2)cc1Nc1cc(F)cc(-n2ncc(C)n2)c1OC [Example 14]
[1]; [5]
  IC50: 71 nM

## [2H]C([2H])([2H])NC(=O)c1nnc(NC(=O)C2CC2)cc1Nc1cccc(-n2ncc(C)n2)c1OC [Example 13]
[1]; [5]
  IC50: 38 nM

## [2H]C([2H])([2H])NC(=O)c1cnc(NC(=O)C2CC2)cc1Nc1cccc(C(=O)NCc2ccc(NC(=O)C=C)cn2)c1OC [Example 1, 4-((3-(((5-acrylamidopyridin-2-yl)methyl)carbamoyl)-2-methoxyphenyl)amino)-6-(cyclopropanecarboxamido)-N-(methyl-d3)nicotinamide]
[2]
  IC50: 27 nM
[1]; [5]
  IC50: 318 nM

## [2H]C([2H])([2H])NC(=O)c1cnc(NC(=O)C2CC2)cc1Nc1cccc(C(=O)NCc2ccc(NC(=O)CCl)cn2)c1OC [Example 2, 4-((3-(((5-(2-chloroacetamido)pyridin-2-yl)methyl)carbamoyl)-2-methoxyphenyl)amino)-6-(cyclopropanecarboxamido)-N-(methyl-d3)nicotinamide]
[2]
  IC50: 5.56 nM
[1]; [5]
  IC50: 15.7 nM

## [2H]C([2H])([2H])NC(=O)c1nnc(NC(=O)C2CC2)cc1Nc1cccc(C2=NC3(CC3)C(=O)N2)c1OC [Example 10]
[1]; [5]
  IC50: 74 nM

## [2H]C([2H])([2H])NC(=O)c1nnc(NC(=O)C2CC2)cc1Nc1cccc(-c2cc(=O)n(C3CC3)cn2)c1OC [Example 4, 6-(cyclopropanecarboxamido)-4-((3-(1-cyclopropyl-6-oxo-1,6-dihydropyrimidin-4-yl)-2-methoxyphenyl)amino)-N-(methyl-d3)pyridazine-3-carboxamide]
[1]; [6]
  IC50: 18 nM
[1]; [7]
  IC50: ~18 nM
[1]; [8]
  IC50: 18.3 nM
Jak1 JH2
  IC50: 4.99 nM
[3]; HEK-Blue
  IC50: ~4 nM
[3]
  IC50: 3.7 nM
IL-2 reporter (JAK1/3); [9]
  IC50: 696 nM
IL-2 reporter (JAK1/3); [10]
  IC50: > 10000 nM
IFNγ reporter (JAK1/2); [11]
  IC50: > 10000 nM
IFNγ reporter (JAK1/2); read-out: IC50 in IFN-gamma reporter assay (JAK1/2)
  IC50: > 10000 nM
[4]; 2.5 mpk
  inhibition of IFNγ production: 52.7%
[4]; 5 mpk
  inhibition of IFNγ production: 76.0%
[4]; 7.5 mpk
  inhibition of IFNγ production: 88.6%
[4]
  inhibition of IFNγ production (reduction compared to vehicle treated group): 93.3%
IL-23-induced psoriasis
  protection from IL-23-induced psoriasis (ear thickness), result in words: dose-dependently protect mice from IL-23-induced psoriasis

## [2H]C([2H])([2H])NC(=O)c1nnc(NC(=O)C2CC2)cc1Nc1cccc(-c2ncn(C)n2)c1OC [BMS-986165, reference compound]
[1]; [7]
  IC50: 3.5 nM
[1]; [5]
  IC50: 3.76 nM
IL-2 reporter (JAK1/3); [9]
  IC50: 221 nM
IL-2 reporter (JAK1/3); cellular assay, read-out: IL-2 reporter assay (JAK1/3) IC50
  IC50: 221 nM
IFNγ reporter (JAK1/2); [11]
  IC50: 1090 nM
Dog PK; [12]
  AUC(0-t): 3.8 µM·h
Dog PK; [13]
  Cmax: 2.7 µM
Dog PK; [14]
  AUC(0-t): 22.3 µM·h

## [2H]C([2H])([2H])NC(=O)c1nnc(NC(=O)C2CC2)cc1Nc1cccc(-n2cnc(C)n2)c1OC [Example 5, 6-(cyclopropanecarboxamido)-4-((2-methoxy-3-(3-methyl-1H-1,2,4-triazol-1-yl)phenyl)amino)-N-(methyl-d3)pyridazine-3-carboxamide]
[1]; [6]
  IC50: 6 nM
[1]; [7]
  IC50: ~6 nM
[1]; [8]
  IC50: 6.1 nM
Jak1 JH2
  IC50: 13.2 nM
[3]; HEK-Blue
  IC50: ~5 nM
[3]
  IC50: 4.6 nM
IL-2 reporter (JAK1/3); [9]
  IC50: > 10000 nM
IL-2 reporter (JAK1/3); [10]
  IC50: > 10000 nM
IFNγ reporter (JAK1/2); [11]
  IC50: > 10000 nM
[4]
  inhibition of IFNγ production (reduction compared to vehicle treated group): greater than 93%
[4]; positive control BMS986165
  inhibition of IL-12/IL-18 induced IFNγ production, result in words: efficacy similar to the positive control tested
IL-23-induced psoriasis
  protection from IL-23-induced psoriasis (ear thickness), result in words: dose-dependently protect mice from IL-23-induced psoriasis
Dog PK
  pharmacokinetic profile in dog compared to BMS986165, in words: superior pharmacokinetic profile in dog compared to BMS986165
Dog PK; [12]
  AUC(0-t): 6.4 µM·h
Dog PK; [13]
  Cmax: 7.87 µM
Dog PK; [14]
  AUC(0-t): 47.5 µM·h
Mouse PK
  mouse PK profile compared to BMS986165, in words: about the same with BMS986165

## [2H]C([2H])([2H])NC(=O)c1nnc(NC(=O)C2CC2)cc1Nc1cc(F)cc(-n2cnc(C)n2)c1OC [Example 12]
[1]; [5]
  IC50: 15 nM

## [2H]C([2H])([2H])NC(=O)c1cnc(NC(=O)C2CC2)cc1Nc1cc(F)cc(-c2cc(=O)n(C3CC3)cn2)c1OC [Example 6]
[2]
  IC50: 30 nM
[1]; [5]
  IC50: 18 nM

## [2H]C([2H])([2H])NC(=O)c1nnc(NC(=O)C2CC2)cc1Nc1cc(F)cc(C2=NC3(CC3)C(=O)N2)c1OC [Example 9]
[1]; [5]
  IC50: 318 nM

## [2H]C([2H])([2H])NC(=O)c1cnc(NC(=O)C2CC2)cc1Nc1cccc(-c2cc(=O)n(C3CC3)cn2)c1OC [Example 3, 6-(cyclopropanecarboxamido)-4-((3-(1-cyclopropyl-6-oxo-1,6-dihydropyrimidin-4-yl)-2-methoxyphenyl)amino)-N-(methyl-d3)nicotinamide]
[2]
  IC50: 16.1 nM
[1]; [5]
  IC50: 6.5 nM

## [2H]C([2H])([2H])NC(=O)c1nnc(NC(=O)C2CC2)cc1Nc1cccc(-c2nc(=O)n(C)[nH]2)c1OC [Example 15]
[1]; [5]
  IC50: 25 nM
